Positions count from the first letter of the chain named. Several values for one entry are separate records, joined by “and”; a condition that tells them apart may be missing. Equal entries are not always repeated.

As usually defined, the pKa is the negative logarithm of the acid dissociation constant. Broadly, the IC50 is the concentration needed to halve the response being measured.

For data set [1] the following is noted: no reference given; cited from earlier work.
Data set [2] deals with TRPV3 I674A gate residue mutant. The note with it: cited from earlier work.
In data set [3] the target is T1, TRPV3 (Mus musculus, UniProt Q8K424).
T1 construct: expressed in transfected cells; host or cells: HEK 293 S GnTI- cells (baculovirus transduction)
T1 sequence (Q8K424 1-791): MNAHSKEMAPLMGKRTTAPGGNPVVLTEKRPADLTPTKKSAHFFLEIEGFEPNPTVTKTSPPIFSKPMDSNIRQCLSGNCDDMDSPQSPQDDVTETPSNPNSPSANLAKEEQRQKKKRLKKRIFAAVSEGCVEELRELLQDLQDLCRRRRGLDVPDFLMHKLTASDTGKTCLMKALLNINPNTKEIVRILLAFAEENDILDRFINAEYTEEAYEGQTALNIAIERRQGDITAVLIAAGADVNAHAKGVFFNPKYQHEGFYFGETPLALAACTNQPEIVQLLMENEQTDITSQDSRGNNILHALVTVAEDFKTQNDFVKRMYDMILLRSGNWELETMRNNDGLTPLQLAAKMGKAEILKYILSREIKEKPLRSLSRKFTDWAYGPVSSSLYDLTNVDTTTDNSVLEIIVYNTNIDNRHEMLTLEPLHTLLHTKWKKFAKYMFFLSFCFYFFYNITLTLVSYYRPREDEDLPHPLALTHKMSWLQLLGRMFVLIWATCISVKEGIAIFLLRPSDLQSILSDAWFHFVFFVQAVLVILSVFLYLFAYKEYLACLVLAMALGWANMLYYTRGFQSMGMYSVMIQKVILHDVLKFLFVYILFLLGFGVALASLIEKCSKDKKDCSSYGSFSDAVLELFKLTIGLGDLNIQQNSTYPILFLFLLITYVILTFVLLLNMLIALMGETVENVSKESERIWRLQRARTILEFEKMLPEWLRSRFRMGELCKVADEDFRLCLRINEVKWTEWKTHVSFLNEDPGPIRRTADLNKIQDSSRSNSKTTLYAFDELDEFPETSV
The data set can be described thus: 2-APB concentration dependence of TRPV3 activation at two dyclonine concentrations (Schild plot). In kind it is cell-based. The settings on record: for TRPV3 activation by 2-APB in the presence of dyclonine (Schild plot source data): listed as Dyc. Here is the method:
(§1) GFP-free C-terminally strep-tagged wild-type TRPV3, TRPV3-Y564A, TRPV3-Y594A, TRPV3-F633A, TRPV3-I663W, and TRPV3-F666A were expressed in HEK 293 S GnTI^− cells as previously described[41],[42],[53]. In short, 48 h after transduction, 1-ml aliquots of cell suspension were collected by centrifugation at 550 g for 5 min using an Eppendorf 5424 centrifuge. The cells were resuspended in the pre-warmed modified HEPES-buffered saline (HBS) containing 118 mM NaCl, 4.8 mM KCl, 1 mM MgCl2, 5 mM D-glucose, and 10 mM HEPES pH 7.4 and 5 μg/ml Fura-2 AM (Thermo Fisher Scientific) and incubated for 45 min at 37 °C. The Fura-2-loaded cells were then centrifuged for 5 min at 550 g, resuspended in the pre-warmed, modified HBS and incubated again for 30 min at 37 °C in the dark. The cells were subsequently pelleted and washed twice in the modified HBS. The washed cell pellets were kept on ice in the dark before taking an aliquot for fluorescence measurements. […] We used the lower CaCl2 concentration than before[42],[28] (2.5 mM) to minimize non-specific effects, which often appeared as a drift in the Fura-2 signal at high Ca^2+ concentration, presumably due to cell death as a result of calcium overload. Fluorescence measurements were conducted using a QuantaMaster 40 spectrofluorometer (Photon Technology International) at room temperature in a quartz cuvette under constant stirring. After 60 s since the beginning, the recording was paused and 2-APB was added. After the addition of 2-APB, the recording was continued for the additional 140 s. Changes in intracellular Ca^2+ were measured by taking the ratio of fluorescence emitted at 510 nm at the excitation wavelength of 340 nm and 380 nm. […] The data were processed using Origin 9.0 (OriginLab) software.

In data set [4] the test system is TRPV3. The settings on record: cited from earlier work.
The target of data set [5] is T2, TRPV3-F633A (Mus musculus, UniProt Q8K424, F633A).
T2 construct: expressed in transfected cells; host or cells: HEK 293 S GnTI- cells (baculovirus transduction)
T2 sequence (Q8K424 1-791 F633A): T1 sequence (Q8K424 1-791) with F633A
The data set can be described thus: Fura-2 ratiometric Ca2+ uptake, inhibition of 2-APB-evoked response. The data set is classed as cell-based.
From the text: The portal site in TRPV3 has not been previously shown to bind small-molecule inhibitors. This site, however, was originally proposed to be an entry pathway for local anesthetics to the pore of sodium channels[47]–[49] and found to accommodate cannabidiol in TRPV2, a closely-related representative of the vanilloid subfamily of TRP channels. […] We concluded that the Y594A mutation altered gating properties of TRPV3 and excluded this mutant from further analysis.
as §1

Take `CCCCOc1ccc(C(=O)CCN2CCCCC2)cc1` [dyclonine, 1-(4-butoxyphenyl)-3-piperidin-1-ylpropan-1-one]: in data set [1], the pKa is listed as 8.36. In data set [2], the “inhibitory potency at I674A mutant” value is recorded as “reduced inhibitory potency”. The “TRPV3 activation by 2-APB in the presence of dyclonine (Schild plot source data)” value in data set [3] (60 mM Dyc, 2-APB Conc 20, single experiments) was 0.167 and 0.154 and 0.168; in data set [3] (60 mM Dyc, 2-APB Conc 40, single experiments), 0.144 and 0.213 and 0.179; in data set [3] (60 mM Dyc, 2-APB Conc 80, single experiments), 0.244 and 0.241 and 0.22; in data set [3] (60 mM Dyc, 2-APB Conc 160, single experiments) it was 0.294 and 0.283; in data set [3] (2-APB Conc 10, single experiments), 0.194 and 0.175 and 0.157; in data set [3] (2-APB Conc 20, single experiments), 0.323 and 0.34 and 0.318. For the same compound, the “TRPV3 activation by 2-APB in the presence of dyclonine (Schild plot source data)” value in data set [3] (2-APB Conc 40, single experiments) is 0.542 and 0.419 and 0.487; in data set [3] (2-APB Conc 80, single experiments), 0.804 and 0.786 and 0.853. Also, the “competition between 2-APB and dyclonine (Schild plots)” value in data set [3] (10 and 60 μM dyclonine) is listed as “lack of obvious competition”. Further, in data set [4] (TRPV3 activation by an infrared laser), the temperature-dependence of inhibition result is “lack of temperature-dependence”. In addition, in data set [4], the “effect on TRPV3 currents evoked by heat” value is recorded as “inhibits”. In addition, the “voltage-dependence of TRPV3 inhibition” value in data set [4] was “no voltage-dependence”. Further, the “IC50 of F633A compared to wild-type channels” value in data set [5] is given as “three times smaller”. In addition, the concentration for half-maximal inhibition (IC50) in data set [5] (200 µM 2-APB, n = 6, read-out: IC50, inhibition of F633A mutant) was 9.8 ± 0.7 µM. The “nHill of inhibition curve, F633A” value in data set [5] (logistic fit, n = 6) worked out at 1.68 ± 0.19.
